According to patent publication US11208412B2 (DAEGU-GYEONGBUK MEDICAL INNOVATION FOUNDATION, priority 2017, dated 2021):

How the values were obtained:
Assay in all cases: Kinase selectivity, DiscoverX scanMAX Kinase assay panel (% control)
Format in all cases: binding
[1] = biological target: T1, kinases of the scanMAX Kinase assay panel (Homo sapiens, UniProt Q9H0K1); conditions: kinase SIK2; 1 uM in DMSO
T1 construct: purchased DiscoverX Co. (contract measurement) scanMAX Kinase assay panel
Outline: (§1)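 Each enzyme is treated with drug at 1 uM in DMSO, then signal is scaled between a positive control (0%) and DMSO (100%) to give % control. Kinases with % control under 35% are scored as inhibited.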

[2] = biological target: T2, kinases of the scanMAX Kinase assay panel (Homo sapiens, UniProt P42336, E545A); conditions: PIK3CA(E545A); 1 uM
T2 construct: purchased DiscoverX Co. (contract measurement) scanMAX Kinase assay panel
Outline: as §1

[3] = biological target: T3, kinases of the scanMAX Kinase assay panel (Homo sapiens, UniProt P00519, Y253F); conditions: ABL1(Y253F)-phosphorylated; 1 uM
T3 construct: purchased DiscoverX Co. (contract measurement) scanMAX Kinase assay panel
Outline: as §1

[4] = biological target: T4, kinases of the scanMAX Kinase assay panel (Homo sapiens, UniProt P42336, C420R); conditions: PIK3CA(C420R); 1 uM
T4 construct: purchased DiscoverX Co. (contract measurement) scanMAX Kinase assay panel
Outline: as §1

[5] = biological target: T5, kinases of the scanMAX Kinase assay panel (Homo sapiens, UniProt P08581, Y1235D); conditions: MET(Y1235D); 1 uM
T5 construct: purchased DiscoverX Co. (contract measurement) scanMAX Kinase assay panel
T5 sequence (P08581 25-1390 Y1235D): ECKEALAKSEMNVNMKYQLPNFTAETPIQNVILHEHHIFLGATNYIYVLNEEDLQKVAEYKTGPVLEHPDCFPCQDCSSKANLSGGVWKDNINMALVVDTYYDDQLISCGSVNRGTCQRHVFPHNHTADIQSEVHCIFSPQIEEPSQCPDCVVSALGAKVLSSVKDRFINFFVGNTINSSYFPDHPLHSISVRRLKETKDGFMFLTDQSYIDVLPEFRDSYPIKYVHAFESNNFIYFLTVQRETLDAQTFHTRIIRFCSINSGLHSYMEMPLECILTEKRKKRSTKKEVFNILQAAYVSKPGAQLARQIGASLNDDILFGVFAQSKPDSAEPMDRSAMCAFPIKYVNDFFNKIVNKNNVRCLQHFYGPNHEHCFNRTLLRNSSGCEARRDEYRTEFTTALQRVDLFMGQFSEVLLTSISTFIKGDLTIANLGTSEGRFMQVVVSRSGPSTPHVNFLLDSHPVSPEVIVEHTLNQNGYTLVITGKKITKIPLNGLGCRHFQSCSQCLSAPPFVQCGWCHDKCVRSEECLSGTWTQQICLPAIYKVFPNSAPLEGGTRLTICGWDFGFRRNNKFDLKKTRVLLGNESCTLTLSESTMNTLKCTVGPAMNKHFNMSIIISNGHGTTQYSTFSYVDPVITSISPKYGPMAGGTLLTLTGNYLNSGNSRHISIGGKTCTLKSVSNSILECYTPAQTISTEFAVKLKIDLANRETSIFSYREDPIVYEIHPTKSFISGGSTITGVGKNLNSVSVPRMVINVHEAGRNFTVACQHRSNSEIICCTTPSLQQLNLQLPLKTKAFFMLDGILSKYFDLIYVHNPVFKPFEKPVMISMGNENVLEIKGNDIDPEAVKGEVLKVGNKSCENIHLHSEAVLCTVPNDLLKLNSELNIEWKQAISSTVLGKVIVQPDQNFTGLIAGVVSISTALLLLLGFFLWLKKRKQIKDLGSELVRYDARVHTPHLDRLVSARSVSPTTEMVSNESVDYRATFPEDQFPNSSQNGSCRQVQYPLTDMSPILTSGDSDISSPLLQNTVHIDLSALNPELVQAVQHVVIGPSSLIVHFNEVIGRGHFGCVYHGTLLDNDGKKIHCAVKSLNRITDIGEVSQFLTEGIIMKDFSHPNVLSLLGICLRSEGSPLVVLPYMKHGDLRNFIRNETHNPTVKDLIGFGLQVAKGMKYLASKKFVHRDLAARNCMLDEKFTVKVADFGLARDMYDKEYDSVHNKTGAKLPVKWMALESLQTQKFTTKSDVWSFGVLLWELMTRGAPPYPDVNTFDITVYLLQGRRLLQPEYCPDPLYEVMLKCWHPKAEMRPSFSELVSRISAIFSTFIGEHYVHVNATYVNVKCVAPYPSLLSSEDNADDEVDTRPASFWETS
Outline: as §1

[6] = biological target: T6, kinases of the scanMAX Kinase assay panel (Homo sapiens, UniProt Q8IW41); conditions: MAPKAPK5; 1 uM
T6 construct: purchased DiscoverX Co. (contract measurement) scanMAX Kinase assay panel
T6 sequence (Q8IW41 1-473): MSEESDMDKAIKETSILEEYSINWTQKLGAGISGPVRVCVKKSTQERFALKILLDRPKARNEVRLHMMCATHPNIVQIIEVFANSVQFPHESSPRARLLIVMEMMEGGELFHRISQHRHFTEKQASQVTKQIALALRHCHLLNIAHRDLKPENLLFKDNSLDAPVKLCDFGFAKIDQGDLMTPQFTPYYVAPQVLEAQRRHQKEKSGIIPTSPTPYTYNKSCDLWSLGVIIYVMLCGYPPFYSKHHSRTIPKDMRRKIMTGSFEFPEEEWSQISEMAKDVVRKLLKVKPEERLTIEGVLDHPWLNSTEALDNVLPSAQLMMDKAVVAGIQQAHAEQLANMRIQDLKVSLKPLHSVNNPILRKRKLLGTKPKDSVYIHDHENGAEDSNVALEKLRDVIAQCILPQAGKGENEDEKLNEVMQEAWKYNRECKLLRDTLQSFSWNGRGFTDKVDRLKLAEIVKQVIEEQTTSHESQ
Outline: as §1

[7] = biological target: T7, kinases of the scanMAX Kinase assay panel (Homo sapiens, UniProt P36888, K663Q); conditions: FLT3(K663Q); 1 uM
T7 construct: purchased DiscoverX Co. (contract measurement) scanMAX Kinase assay panel
T7 sequence (P36888 27-993 K663Q): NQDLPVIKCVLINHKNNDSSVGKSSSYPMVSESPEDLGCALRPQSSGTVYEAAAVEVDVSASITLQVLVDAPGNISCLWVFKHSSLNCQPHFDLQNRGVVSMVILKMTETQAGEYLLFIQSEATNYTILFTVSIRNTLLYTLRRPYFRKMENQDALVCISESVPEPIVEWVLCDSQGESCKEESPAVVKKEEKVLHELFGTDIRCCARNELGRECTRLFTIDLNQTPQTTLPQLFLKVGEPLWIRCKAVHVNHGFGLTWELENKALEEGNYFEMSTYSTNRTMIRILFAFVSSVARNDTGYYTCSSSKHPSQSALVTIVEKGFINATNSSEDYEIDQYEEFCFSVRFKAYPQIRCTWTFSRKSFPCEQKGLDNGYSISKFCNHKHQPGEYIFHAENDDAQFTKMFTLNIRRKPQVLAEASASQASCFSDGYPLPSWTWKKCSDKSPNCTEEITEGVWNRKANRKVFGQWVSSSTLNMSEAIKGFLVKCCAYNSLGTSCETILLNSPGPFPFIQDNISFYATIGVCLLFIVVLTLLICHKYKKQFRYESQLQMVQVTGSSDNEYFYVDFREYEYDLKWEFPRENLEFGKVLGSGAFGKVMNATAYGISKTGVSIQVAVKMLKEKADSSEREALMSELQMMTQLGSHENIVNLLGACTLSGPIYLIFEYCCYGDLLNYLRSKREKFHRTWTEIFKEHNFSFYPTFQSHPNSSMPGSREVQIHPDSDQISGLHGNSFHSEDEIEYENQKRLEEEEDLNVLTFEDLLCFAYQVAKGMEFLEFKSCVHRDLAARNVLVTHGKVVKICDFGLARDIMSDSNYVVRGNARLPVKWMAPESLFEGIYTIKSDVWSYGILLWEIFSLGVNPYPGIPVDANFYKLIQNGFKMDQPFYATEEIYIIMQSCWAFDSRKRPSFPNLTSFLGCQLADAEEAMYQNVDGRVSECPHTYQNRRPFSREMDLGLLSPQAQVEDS
Outline: as §1

[8] = biological target: T8, kinases of the scanMAX Kinase assay panel (Homo sapiens, UniProt P53779); conditions: JNK3; 1 uM
T8 construct: purchased DiscoverX Co. (contract measurement) scanMAX Kinase assay panel
T8 sequence (P53779 whole entry): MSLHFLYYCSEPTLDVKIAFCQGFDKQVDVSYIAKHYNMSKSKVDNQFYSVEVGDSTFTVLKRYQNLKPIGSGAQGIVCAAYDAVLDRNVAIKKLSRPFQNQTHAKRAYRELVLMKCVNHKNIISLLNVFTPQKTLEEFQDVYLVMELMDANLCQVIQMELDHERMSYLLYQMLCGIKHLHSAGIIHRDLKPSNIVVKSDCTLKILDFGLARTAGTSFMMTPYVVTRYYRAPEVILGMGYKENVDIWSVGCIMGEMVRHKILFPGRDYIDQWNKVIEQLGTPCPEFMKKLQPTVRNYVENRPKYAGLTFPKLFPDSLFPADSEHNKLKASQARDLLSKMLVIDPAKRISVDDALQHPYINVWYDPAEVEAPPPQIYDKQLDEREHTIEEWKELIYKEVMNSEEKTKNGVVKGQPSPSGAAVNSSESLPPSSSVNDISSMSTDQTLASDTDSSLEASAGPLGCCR
Outline: as §1

[9] = biological target: T9, kinases of the scanMAX Kinase assay panel (Homo sapiens, UniProt P00519, Q252H); conditions: 1 uM
T9 construct: purchased DiscoverX Co. (contract measurement) scanMAX Kinase assay panel
Outline: as §1

[10] = biological target: T10, kinases of the scanMAX Kinase assay panel (Homo sapiens, UniProt Q9BVS4); conditions: kinase RIOK2; 1 uM in DMSO
T10 construct: purchased DiscoverX Co. (contract measurement) scanMAX Kinase assay panel
T10 sequence (Q9BVS4 whole entry): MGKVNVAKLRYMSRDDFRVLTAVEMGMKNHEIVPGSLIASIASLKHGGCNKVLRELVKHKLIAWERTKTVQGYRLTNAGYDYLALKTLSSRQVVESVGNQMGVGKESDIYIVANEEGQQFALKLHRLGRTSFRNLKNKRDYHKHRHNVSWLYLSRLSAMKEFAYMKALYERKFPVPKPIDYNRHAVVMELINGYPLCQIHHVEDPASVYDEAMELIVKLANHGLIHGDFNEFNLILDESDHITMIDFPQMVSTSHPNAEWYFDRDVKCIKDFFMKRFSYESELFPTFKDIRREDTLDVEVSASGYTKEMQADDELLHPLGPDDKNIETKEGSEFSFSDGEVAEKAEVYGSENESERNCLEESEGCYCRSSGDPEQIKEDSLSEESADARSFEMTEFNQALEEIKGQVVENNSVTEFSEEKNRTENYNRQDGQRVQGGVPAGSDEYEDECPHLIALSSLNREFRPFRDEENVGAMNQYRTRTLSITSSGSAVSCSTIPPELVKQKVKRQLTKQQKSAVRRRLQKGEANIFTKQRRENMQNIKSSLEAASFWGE
Outline: as §1

[11] = biological target: T11, kinases of the scanMAX Kinase assay panel (Homo sapiens, UniProt Q13164); conditions: ERK5; 1 uM
T11 construct: purchased DiscoverX Co. (contract measurement) scanMAX Kinase assay panel
T11 sequence (Q13164 whole entry): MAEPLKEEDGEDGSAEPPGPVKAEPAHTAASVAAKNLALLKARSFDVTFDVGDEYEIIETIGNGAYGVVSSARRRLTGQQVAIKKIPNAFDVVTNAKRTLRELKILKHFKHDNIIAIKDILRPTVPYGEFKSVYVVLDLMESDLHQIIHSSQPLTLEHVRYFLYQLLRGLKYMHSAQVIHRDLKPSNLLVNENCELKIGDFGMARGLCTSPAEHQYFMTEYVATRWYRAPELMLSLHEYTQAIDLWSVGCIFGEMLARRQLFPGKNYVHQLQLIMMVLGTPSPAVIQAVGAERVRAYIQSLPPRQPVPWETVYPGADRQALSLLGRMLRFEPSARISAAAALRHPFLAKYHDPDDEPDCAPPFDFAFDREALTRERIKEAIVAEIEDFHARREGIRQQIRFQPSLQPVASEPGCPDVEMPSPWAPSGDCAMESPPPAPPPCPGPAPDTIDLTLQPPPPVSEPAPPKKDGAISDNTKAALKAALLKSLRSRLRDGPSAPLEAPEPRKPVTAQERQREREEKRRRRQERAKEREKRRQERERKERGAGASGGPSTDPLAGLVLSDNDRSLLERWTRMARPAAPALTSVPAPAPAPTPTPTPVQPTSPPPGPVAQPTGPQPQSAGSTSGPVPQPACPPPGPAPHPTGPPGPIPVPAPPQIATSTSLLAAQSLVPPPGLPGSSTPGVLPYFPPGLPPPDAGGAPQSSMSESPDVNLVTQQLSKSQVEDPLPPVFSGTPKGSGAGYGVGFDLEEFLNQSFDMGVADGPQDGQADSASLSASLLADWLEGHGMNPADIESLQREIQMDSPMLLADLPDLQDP
Outline: as §1

[12] = biological target: T12, kinases of the scanMAX Kinase assay panel (Homo sapiens, UniProt P24941); conditions: CDK2; 1 uM
T12 construct: purchased DiscoverX Co. (contract measurement) scanMAX Kinase assay panel
Outline: as §1

[13] = biological target: T13, kinases of the scanMAX Kinase assay panel (Homo sapiens, UniProt P42336, H1047Y); conditions: PIK3CA(H1047Y); 1 uM
T13 construct: purchased DiscoverX Co. (contract measurement) scanMAX Kinase assay panel
Outline: as §1

[14] = biological target: T14, kinases of the scanMAX Kinase assay panel (Homo sapiens, UniProt O15075); conditions: DCAMKL1; 1 uM
T14 construct: purchased DiscoverX Co. (contract measurement) scanMAX Kinase assay panel
T14 sequence (O15075 whole entry): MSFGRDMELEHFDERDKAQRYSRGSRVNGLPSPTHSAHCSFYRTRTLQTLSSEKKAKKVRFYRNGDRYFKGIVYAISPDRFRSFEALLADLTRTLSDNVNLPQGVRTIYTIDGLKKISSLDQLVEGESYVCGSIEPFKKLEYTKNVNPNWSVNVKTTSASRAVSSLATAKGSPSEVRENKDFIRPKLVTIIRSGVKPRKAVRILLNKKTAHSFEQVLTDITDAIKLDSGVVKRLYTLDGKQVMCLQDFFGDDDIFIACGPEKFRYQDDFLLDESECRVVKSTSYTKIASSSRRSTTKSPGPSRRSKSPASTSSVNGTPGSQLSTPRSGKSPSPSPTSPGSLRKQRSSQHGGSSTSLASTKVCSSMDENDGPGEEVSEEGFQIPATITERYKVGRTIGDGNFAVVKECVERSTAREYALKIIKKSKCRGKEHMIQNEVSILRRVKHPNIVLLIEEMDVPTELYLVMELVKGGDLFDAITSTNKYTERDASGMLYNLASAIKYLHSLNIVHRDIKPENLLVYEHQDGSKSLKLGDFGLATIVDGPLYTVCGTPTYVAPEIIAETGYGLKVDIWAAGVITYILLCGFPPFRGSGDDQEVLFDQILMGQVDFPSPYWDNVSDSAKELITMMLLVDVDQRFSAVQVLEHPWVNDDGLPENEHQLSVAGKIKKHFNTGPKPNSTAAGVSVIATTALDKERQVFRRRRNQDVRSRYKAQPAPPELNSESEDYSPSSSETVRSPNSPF
Outline: as §1

T1 sequence (Q9H0K1 whole entry): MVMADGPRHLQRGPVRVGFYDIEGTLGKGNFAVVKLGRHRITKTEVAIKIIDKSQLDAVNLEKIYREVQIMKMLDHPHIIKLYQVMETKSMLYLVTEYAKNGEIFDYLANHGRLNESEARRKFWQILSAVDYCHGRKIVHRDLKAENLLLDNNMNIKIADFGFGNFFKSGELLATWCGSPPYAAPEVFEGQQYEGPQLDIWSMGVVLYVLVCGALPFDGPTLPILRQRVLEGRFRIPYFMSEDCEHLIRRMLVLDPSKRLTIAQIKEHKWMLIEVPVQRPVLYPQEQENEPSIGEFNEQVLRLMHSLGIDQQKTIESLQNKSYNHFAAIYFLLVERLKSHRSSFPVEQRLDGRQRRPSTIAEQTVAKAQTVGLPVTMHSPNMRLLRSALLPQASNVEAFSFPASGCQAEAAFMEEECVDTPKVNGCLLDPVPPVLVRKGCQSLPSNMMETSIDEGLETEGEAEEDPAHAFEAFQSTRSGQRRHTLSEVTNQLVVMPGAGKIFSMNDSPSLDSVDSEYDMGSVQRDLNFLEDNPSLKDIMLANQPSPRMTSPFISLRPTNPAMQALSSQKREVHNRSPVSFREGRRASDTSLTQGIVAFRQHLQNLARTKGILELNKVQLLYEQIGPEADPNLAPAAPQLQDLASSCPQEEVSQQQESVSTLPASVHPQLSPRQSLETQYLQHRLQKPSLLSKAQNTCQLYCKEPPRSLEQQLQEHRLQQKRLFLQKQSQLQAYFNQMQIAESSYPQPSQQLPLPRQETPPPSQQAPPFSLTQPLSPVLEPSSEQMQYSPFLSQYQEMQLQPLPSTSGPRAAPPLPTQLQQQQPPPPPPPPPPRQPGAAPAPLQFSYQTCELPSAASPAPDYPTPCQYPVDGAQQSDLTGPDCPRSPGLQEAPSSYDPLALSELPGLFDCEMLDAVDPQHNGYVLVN

## CCNc1nc(Nc2ccc(C(=O)N3CCC(N4CCOCC4)CC3)cc2OC)nc2[nH]cc(C(F)(F)F)c12 [Example 104, (4-((4-(ethylamino)-5-(trifluoromethyl)-7H-pyrrolo[2,3-d]pyrimidine-2-yl)amino)-3-methoxyphenyl)(4-morpholinopiperidine-1-yl)methanone]
[1]
  remaining binding at 1 µM: 100%
[2]
  remaining binding at 1 µM: 90%
[3]
  remaining binding at 1 µM: 86%
[4]
  remaining binding at 1 µM: 91%
[5]
  remaining binding at 1 µM: 100%
[6]
  remaining binding at 1 µM: 51%
[7]
  remaining binding at 1 µM: 64%
[8]
  remaining binding at 1 µM: 18%
[9]; ABL1(Q252H)-nonphosphorylated
  remaining binding at 1 µM: 99%
[9]; ABL1(Q252H)-phosphorylated
  remaining binding at 1 µM: 82%
[10]
  remaining binding at 1 µM: 75%
[11]
  remaining binding at 1 µM: 18%
[12]
  remaining binding at 1 µM: 98%
[13]
  remaining binding at 1 µM: 96%
[14]
  remaining binding at 1 µM: 49%

## CNc1nc(Nc2ccc(C(=O)N3CCOCC3)cc2OC)nc2[nH]cc(C#N)c12 [Example 1, 2-((2-methoxy-4-(morpholine-4-carbonyl)phenyl)amino)-4-(methylamino)-7H-pyrrolo[2,3-d]pyrimidine-5-carbonitrile]
[1]
  remaining binding at 1 µM: 100%
[2]
  remaining binding at 1 µM: 94%
[3]
  remaining binding at 1 µM: 97%
[4]
  remaining binding at 1 µM: 94%
[5]
  remaining binding at 1 µM: 82%
[6]
  remaining binding at 1 µM: 16%
[7]
  remaining binding at 1 µM: 92%
[8]
  remaining binding at 1 µM: 0%
[9]; ABL1(Q252H)-nonphosphorylated
  remaining binding at 1 µM: 57%
[9]; ABL1(Q252H)-phosphorylated
  remaining binding at 1 µM: 100%
[10]
  remaining binding at 1 µM: 47%
[11]
  remaining binding at 1 µM: 72%
[12]
  remaining binding at 1 µM: 94%
[13]
  remaining binding at 1 µM: 100%
[14]
  remaining binding at 1 µM: 57%

## CC1(Nc2nc(Nc3cnn([C@H]4CCN(C5COC5)C[C@@H]4F)c3Cl)nc3[nH]cc(C#N)c23)CC1 [Example 52, 2-((5-chloro-1-((3S,4S)-3-fluoro-1-(oxetane-3-yl)piperidine-4-yl)-1H-pyrazole-4-yl)amino)((1-methylcyclopropyl)amino)-7H-pyrrolo[2,3-d]pyrimidine-5-carbonitrile]
[1]
  remaining binding at 1 µM: 33%
[2]
  remaining binding at 1 µM: 71%
[3]
  remaining binding at 1 µM: 1%
[4]
  remaining binding at 1 µM: 63%
[5]
  remaining binding at 1 µM: 31%
[6]
  remaining binding at 1 µM: 72%
[7]
  remaining binding at 1 µM: 0.1%
[8]
  remaining binding at 1 µM: 0%
[9]; ABL1(Q252H)-nonphosphorylated
  remaining binding at 1 µM: 1.1%
[9]; ABL1(Q252H)-phosphorylated
  remaining binding at 1 µM: 0.25%
[10]
  remaining binding at 1 µM: 1.1%
[11]
  remaining binding at 1 µM: 13%
[12]
  remaining binding at 1 µM: 96%
[13]
  remaining binding at 1 µM: 62%
[14]
  remaining binding at 1 µM: 34%
